Tests used:
Tigriopus fulvus = assay: Copepods efficacy test; format: in vivo; conditions: Tigriopus fulvus nauplii
Description: For that, efficacy test was carried out by using Tigriopus fulvus, it is a shallow-water marine species (Crustacea, Copepoda, Harpactico.da) characterized by […], all variously deep-orange coloured: five nauplius substages and five copepodid substages. Nauplii have a subcircular shape, are characterized by a single red eye, and develop within 6 to 7 days. Copepods are recognisable because of their abdominal segment formation, although the last substage is difficult to distinguish from the adult female at the end of the 7-day development period. Adult sizes range from 0.8 to 1.0 mm for males and from 1.0 to 1.2 mm for females. Sexual dimorphism is detectable only by the pincer shape of antenna 1, whereas ovigerous females can quickly be recognized because of their large egg sacs. T. fulvus is a vector for the transport of Vibrio spp; it is well documented that the persistence of V. cholerae in the aquatic environment is facilitated by its ability to colonize various substrates, including zooplankton surfaces (i.e., copepods).
Copepods, sampled in their natural habitat, have been moved through suitable containers to the laboratory, where they were subjected to a specific treatment. They were first filtered through a […] mesh, then washed with sterile sea-water and transferred to small 3 litres aquaria, with natural filtered (0.22 μm) sea water, T=20+0,5° C. Copepods were fed with microalgae (Chlorella spp, Tetraselmis suecica) and commercial yeast (Saccharomices spp). After the acclimatization period (one month), about 500 females were chosen and separated. The naupliar stage was then used for the efficacy test. […] Nauplii were used 24 hours after their hatching, multiwell plates (25 wells) were used for these tests, about 15 individuals for each well. Each concentration was performed in six replicates, plates were kept at dark, at 20° C.

[1] = test system: cysts (resting stage) of Scrippsiella trochoidea; assay: Inhibition of dynoflagellates cysts hatching; format: cell-based; conditions: after 6 days
Description: For this test, cysts (resting stage) of Scrippsiella trochoidea (Dinophyta) were used. Scrippsiella trochoidea (order Peridiniales, subfamily Calciodinelloideae) i.e. a non-toxic autotrophic orthoperidinioid dinoflagellate producing calcareous resting cysts which are abundant in coastal marine sediments. The maturation period for S. trochoidea cysts rang between 2 and 5 weeks.
S. trochoidea cysts are very convenient for experimental purposes because their sorting and culturing is comparatively easy, the cysts being relatively abundant in sediments.
Sediments were sampled in Mar Piccolo (Taranto). The utilized method allowed us to pick up the superficial sediment layer of a certain area entirely, where most of the cysts is present. The sample was immediately kept at dark at 4° C. Sediments collected about one year ago were utilized, in order to be sure that the hatching refractoriness period of cysts was finished. The sample (about 2 ml of sediment) was then dissolved in 0,45 μm filtered natural sea-water, sonified for 1 minute (Branson Sonifier) in order to brake sediment clots, resuspended in filtered sea-water and filtered on a Endecotts sieve, with a 20 μm steel mesh. […]

[2] = test system: Bacillus subtilis ATCC 10774; assay: Disk diffusion test (Kirby-Bauer); format: cell-based; conditions: 100 μg MNB disk, 24 hours in the dark
Description: (§1) a) Kirby-Bauer assay was carried out after 24 hours in the dark.
(§2) In the disk diffusion susceptibility test, paper disks containing known amounts of MNB are placed on the surface of an agar plate that has been inoculated confluently with a standardized suspension of an indicator bacterial strain. The antimicrobial agent diffuses into the medium causing a zone of inhibition of growth of the strain around the disk corresponding to the susceptibility of the strain to that agent. Interpretative zone diameters have been established to permit classifying an isolate as belonging to the susceptible, intermediate resistance, or resistant categories of susceptibilities to an antimicrobial agent.
(§3) The disk diffusion method on agar plates was used to assess the biocide efficacy of a single concentration of MNB ([…]) against four aerobic quality control strains (Pseudomonas aeruginosa ATCC10145, Pseudomonas elongata NCIMB 1141, Bacillus subtilis ATCC 10774 and Staphylococcus aureus ATCC 25923).
(§4) Test results are summarised in Table 5 and represent the size of the inhibition halos in millimetres after contact with 100 μg MNB (Disk diffusion method).

[3] = test system: Pseudomonas aeruginosa ATCC 10145; assay: Disk diffusion test (Kirby-Bauer); format: cell-based; conditions: 100 μg MNB disk, 24 hours in the dark
Description: as §1, §2, §3, §4

[4] = test system: Pseudomonas elongata NCIMB 1141; assay: Disk diffusion test (Kirby-Bauer); format: cell-based; conditions: 100 μg MNB disk, 24 hours in the dark
Description: as §1, §2, §3, §4

[5] = test system: Staphylococcus aureus ATCC 25923; assay: Disk diffusion test (Kirby-Bauer); format: cell-based; conditions: 100 μg MNB disk, 24 hours in the dark
Description: as §1, §2, §3, §4

[6] = test system: Staphylococcu aureus ATCC 25923; assay: Microdilution broth MIC/MBC; format: cell-based, Staphylococcus aureus; conditions: 24 h at 25° C., dark
Description: b) Serial dilution test: the antibiotic activity is determined quantitatively by using the known sensitivity of a test strain towards an antibiotic which is expressed numerically as the minimal inhibitory concentration (MIC) and the minimal bactericidal concentration (MBC).
Procedure: serial dilutions of the antibiotic to be tested are pipetted into the antibiotic broth, this is then inoculated with a defined quantity of the relevant test strain (FIG. 4).
The Minimum Inhibitory Concentration (MIC) was defined as the lowest concentration of antibiotic which prevented visual turbidity after incubation.
The Minimum Bactericidal Concentration (MBC) is defined as the lowest concentration of an antibiotic killing the majority of a bacterial inoculum (99.9%, equivalent to a thousand-fold reduction of the inoculum). Method: Following a broth dilution MIC test, from each tube in the dilution series a defined volume (20 μL) is spread onto plates without antibiotics. […] The plates were incubate overnight (longer for slow growing bacteria) and then counted the number of colonies growing from each of the test tubes. The number of colonies corresponding to a thousand-fold reduction (MBC) can be calculated if the colony count of the start inoculum is known. […]
Antimicrobial assays were performed in dark, and results were read after 24 h of incubation at 25° C. […]

CC1(S(=O)(=O)O)CC(=O)c2ccccc2C1=O.NC(=O)c1cccnc1 (stereo not shown) [MNB, menadione nicotinamide bisulphite] gave an LC50 (Tigriopus fulvus; 24 hours) of 0.156 µg/mL, an LC50 (Tigriopus fulvus; 48 hours) of 0.071 µg/mL and an LC50 (Tigriopus fulvus; 72 hours) of 0.039 µg/mL. For the same molecule, the LC50 [1] was 2,65 mg/L, the “size of the inhibition halos” value [2] was 0 mm and the “size of the inhibition halos” value [3] was 0 mm. The “size of the inhibition halos” value [4] was 20 mm, the “size of the inhibition halos” value [5] was 20 mm and the MBC [6] was 16 µg/mL. The MIC [6] was 8 µg/mL.

Source: patent publication US20040232089A1, “Biocidal compounds for treating water” (VANETTA S.p.A., priority 2003, published 2004)
